biological target: cytoplasmic kinase domain of human IGF-1R (IGF-1R-GST) (Homo sapiens (Human), UniProt P08069); assay: Insulin-like growth factor-1 receptor (IGF-1R)-kinase assay (DELFIA); format: biochemical; conditions: inhibition of IGF-1R-kinase activity, read-out: IGF1R IC50
Experimental: Insulin-Like Growth Factor-1 Receptor (IGF-1R)-Kinase Assay
The kinase activity is measured by DELFIA® assay (dissociation-enhanced lanthanide fluorescence immunoassay, Perkin Elmer). […] Enzyme activity is measured in the presence of substances and a control substance. Poly-glutamate-tyrosine peptide (pEY, Sigma Aldrich) and biotinylated pEY (bio-pEY) are used as reaction substrates.
After 40 min at RT the reactions are stopped with 50 μL of stop solution (250 mM EDTA, 20 mM HEPES pH 7.4). 90 μL from each reaction are transferred onto streptavidin-coated 96-well plates. After 120 min incubation at RT the plates are washed three times with 200 μL phosphate-buffered saline (PBS) per well. The plates are incubated for 60 min with 100 μL of europium-coupled antibody against phospho-tyrosine (diluted 1/2000 in Perkin Elmer DELFIA assay buffer) per well. The plates are washed three times with 200 μL per well of DELFIA washing buffer. 100 μL DELFIA Enhancement Solution (Perkin Elmer) is added to each well, and the plates are incubated for 10 min. The fluorescence signal is measured with a Wallac Victor TRF Reader. IC50 values for the inhibition of the IGF-1R-kinase activity are calculated using the programmes Fifty (Version 2) and GraphPad (Version 3.0).

Sequence of cytoplasmic kinase domain of human IGF-1R (IGF-1R-GST) (P08069 964-1367 limits assumed): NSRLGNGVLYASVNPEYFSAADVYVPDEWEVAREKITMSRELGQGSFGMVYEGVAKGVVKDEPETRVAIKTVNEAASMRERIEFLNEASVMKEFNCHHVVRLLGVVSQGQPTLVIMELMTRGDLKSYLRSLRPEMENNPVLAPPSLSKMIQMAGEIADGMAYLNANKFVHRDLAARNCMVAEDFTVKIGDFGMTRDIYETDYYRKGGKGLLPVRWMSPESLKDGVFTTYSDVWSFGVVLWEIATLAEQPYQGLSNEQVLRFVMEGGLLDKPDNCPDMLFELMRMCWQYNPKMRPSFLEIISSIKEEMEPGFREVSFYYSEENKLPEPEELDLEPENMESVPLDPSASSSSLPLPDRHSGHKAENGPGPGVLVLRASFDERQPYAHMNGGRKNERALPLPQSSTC

IC50 | Compound
92 nM | CCOc1cc(C(=O)NC)ccc1Nc1ncc2c(n1)-c1c(nn(C)c1-c1ccccc1)CC2 [III-3]

tested on: TC-71 (Ewing's sarcoma) cells; assay: cells; conditions: Homo sapiens, TC-71, 72 h, read-out: EC50 on TC-71 cells
Experimental: Cell Proliferation Assays
Published scientific data has described that interference with the Insulin-like Growth Factor-1 Receptor (IGF-1R) signaling pathway reduces the proliferation of TC-71 cells. Therefore TC-71 cells served as a positive control cell line for monitoring the activity of compounds against IGF-1R-mediated cell proliferation.
2000 TC-71 cells or 1000 HCT 116 cells were seeded per well in 180 μL IMDM+10% foetal calf serum (FCS)+penicillin/streptomycin into 96-well microtitre plates. The plates were placed in a cell culture incubator (37° C. in a humidified atmosphere of 95% […]/5 CO2) overnight. The following day, serial dilutions of compounds, prepared in duplicates, were transferred onto the cell layers (controls without compound). The cells were cultivated for a further 72 h in the cell culture incubator. 20 μL of Alamar Bluet™ (Serotec Ltd, Düsseldorf, Germany) was added to each well and the plates incubated for 7 h in the cell culture incubator.

Compound | EC50
CC1Cc2nn(C)c(-c3ccccc3Cl)c2-c2nc(Nc3ccn(C(C)C)n3)ncc21 (racemic) [Compound I-40, 9-(2-chlorophenyl)-5,8-dimethyl-N-(1-propane-2-ylpyrazol-3-yl)-5,6-dihydropyrazolo[3,4-h]quinazolin-2-amine] | < 3000 nM
CC1Cc2nn(C)c(-c3ccccc3Cl)c2-c2nc(Nc3ccn(C)n3)ncc21 (racemic) [Compound I-42, 9-(2-chlorophenyl)-5,8-dimethyl-N-(1-methylpyrazol-3-yl)-5,6-dihydropyrazolo[3,4-h]quinazolin-2-amine] | < 3000 nM
COc1cc(N2CCN(C)CC2)ccc1Nc1ncc2c(n1)-c1c(nn(C)c1-c1ccccc1Cl)CC2C (racemic) [Compound I-97, 9-(2-chlorophenyl)-N-[2-methoxy-4-(4-methylpiperazin-1-yl)phenyl]-5,8-dimethyl-5,6-dihydropyrazolo[3,4-h]quinazolin-2-amine] | < 3000 nM
COc1cc(C(=O)NC2CCN(C)CC2)ccc1Nc1ncc2c(n1)-c1c(nn(C)c1-c1ccccc1Cl)CC2C (racemic) [Compound I-157, 4-[[9-(2-chlorophenyl)-5,8-dimethyl-5,6-dihydropyrazolo[3,4-h]quinazolin-2-yl]amino]-3-methoxy-N-(1-methylpiperidin-4-yl)benzamide] | < 3000 nM
CC1Cc2nn(C)c(Cc3ccccc3Cl)c2-c2nc(Nc3cnn(C4CCNCC4)c3)ncc21 (racemic) [IV-2a] | < 3000 nM
COC(=O)c1ccc(Nc2ncc3c(n2)-c2c(nn(C)c2-c2ccccc2Cl)CC3)c(OC)c1 [Compound I-3] | < 3000 nM
Cn1nccc1Nc1ncc2c(n1)-c1c(nn(C)c1-c1ccccc1Cl)CC2 [Compound I-23] | < 3000 nM
CCn1ccc(Nc2ncc3c(n2)-c2c(nn(C)c2-c2ccccc2Cl)CC3)n1 [Compound I-30, 9-(2-chlorophenyl)-N-(1-ethylpyrazol-3-yl)-8-methyl-5,6-dihydropyrazolo[3,4-h]quinazolin-2-amine] | < 3000 nM
Cc1cc(Nc2ncc3c(n2)-c2c(nn(C)c2-c2ccccc2Cl)CC3)nn1C [Compound I-109] | < 3000 nM
COc1cc(C(=O)NC2CCN(C)CC2)ccc1Nc1ncc2c(n1)-c1c(nn(C)c1-c1ccccc1Cl)CC2 [Compound I-112, 4-[[9-(2-chlorophenyl)-8-methyl-5,6-dihydropyrazolo[3,4-h]quinazolin-2-yl]amino]-3-methoxy-N-(1-methylpiperidin-4-yl)benzamide] | < 3000 nM
Cc1cccc(-c2c3c(nn2C)CCc2cnc(Nc4ccccc4)nc2-3)c1Cl [Compound I-147] | < 3000 nM
COCCn1ccc(Nc2ncc3c(n2)-c2c(nn(C)c2-c2ccc(Cl)cc2)CC3)n1 [Compound I-171, 9-(4-chlorophenyl)-N-[1-(2-methoxyethyl)pyrazol-3-yl]-8-methyl-5,6-dihydropyrazolo[3,4-h]quinazolin-2-amine] | < 3000 nM
CCn1ccc(Nc2ncc3c(n2)-c2c(nn(C)c2-c2sccc2C)CC3)n1 [Compound I-172] | < 3000 nM
Cc1ccsc1-c1c2c(nn1C)CCc1cnc(Nc3ccn(CCN(C)C)n3)nc1-2 [Compound I-189, N-[1-(2-dimethylaminoethyl)pyrazol-3-yl]-8-methyl-9-(3-methylthiophen-2-yl)-5,6-dihydropyrazolo[3,4-h]quinazolin-2-amine] | < 3000 nM
CCn1ccc(Nc2ncc3c(n2)-c2c(nn(C)c2-c2cccc(OC)c2)CC3)n1 [Compound I-293] | < 3000 nM
Cc1cc(Nc2ncc3c(n2)-c2c(nn(C)c2-c2ccc(OC(F)F)cc2)CC3)nn1C [Compound I-294] | < 3000 nM
COc1cc(C(=O)O)ccc1Nc1ncc2c(n1)-c1c(nn(C)c1-c1ccccc1Cl)CC2 [II-18] | < 3000 nM
COc1cc(C(=O)NC2CC(N3CCN(C)CC3)C2)ccc1Nc1ncc2c(n1)-c1c(nn(C)c1-c1ccccc1Cl)CC2 (stereo not drawn) [III-38] | < 3000 nM
COc1cc(C(=O)NC2CCN(C)CC2)ccc1Nc1ncc2c(n1)-c1c(nn(C)c1-c1sccc1C)CC2 [III-105] | < 3000 nM
COc1cc(C(=O)NC2CCN(C)CC2)ccc1Nc1ncc2c(n1)-c1c(nn(C)c1Cc1c(Cl)cccc1Cl)CC2 [III-107] | < 3000 nM
CC1Cc2nn(C)c(Cc3ccccc3Cl)c2-c2nc(Nc3cnn(C4CCN(C5CCOCC5)CC4)c3)ncc21 (stereo not drawn) [IV-9a] | < 3000 nM
CC(=O)N1CCC(N2CCC(n3cc(Nc4ncc5c(n4)-c4c(nn(C)c4Cc4ccccc4Cl)CC5C)cn3)CC2)CC1 (stereo not drawn) [IV-9b] | < 3000 nM
CC1Cc2nn(C)c(Cc3ccccc3Cl)c2-c2nc(Nc3cnn(C4CCN(CCO)CC4)c3)ncc21 (stereo not drawn) [IV-9c] | < 3000 nM

Source: patent US8735386B2, “Aminopyrazoloquinazolines” (Boehringer Ingelheim International GmbH, priority 2010, dated 2014)
